# Read-outs that look alike come from different tables or passages of the source.
# Key:
# [1] = test system: Klebsiella pneumoniae; experiment: Bacteriostasis/sterilization test (plate count); assay type: cell-based; settings: for inhibition at 35 µM: Klebsiella pneumoniae, read-out: Inhibition rate (%)
# [2] = test system: Methicillin-resistant Staphylococcus aureus; experiment: Bacteriostasis/sterilization test (plate count); assay type: cell-based; settings: 0.035 mM (Table 25)
# [3] = test system: HPV pseudovirus (HPV6-GFP); settings: read-out: median neutralization concentration
# [4] = test system: SARS-CoV-2 pseudovirus; assay type: cell-based, SARS-CoV-2 pseudovirus B.1.526.2
# [5] = test system: Streptococcus pneumoniae; experiment: Bacteriostasis/sterilization test (plate count); assay type: cell-based; settings: for inhibition at 35 µM: Streptococcus pneumoniae, read-out: Inhibition rate (%)
# [6] = test system: H5N1 pseudovirus; assay type: cell-based, Influenza pseudovirus H5N1-Fluc
# [7] = test system: Staphylococcus aureus; experiment: Bacteriostasis/sterilization test (plate count); assay type: cell-based; settings: for inhibition rate: concentration 0.035 mM; for IC50: read-out: half inhibition concentration; for inhibition at 35 µM: read-out: Inhibition rate (%); for inhibition at 9 µM: concentration 0.009 mM, read-out: inhibition rate
# [8] = test system: Pseudomonas aeruginosa; experiment: Bacteriostasis/sterilization test (plate count); assay type: cell-based; settings: for inhibition at 35 µM: Pseudomonas aeruginosa, read-out: Inhibition rate (%)
# [9] = test system: Escherichia coli; experiment: Bacteriostasis/sterilization test (plate count); assay type: cell-based; settings: for inhibition at 35 µM: Escherichia coli, read-out: Inhibition rate (%)
# [10] = test system: Human hair follicle stem cells; experiment: Human hair follicle stem cell proliferation (EdU); assay type: cell-based; settings: 20 μM, 30 μM, 50 μM, 6 h
# [11] = test system: H7N9 pseudovirus; assay type: cell-based, Influenza pseudovirus H7N9-Fluc
# [12] = test system: HIV pseudovirus; assay type: cell-based, HIV pseudovirus HIV18A-41
# [13] = test system: TNF-α; experiment: LPS inflammatory aging in C57BL/6 mice, serum TNF-α (Example II-55, Table II-37); assay type: in vivo, mouse; settings: 1 mM, 200 μl/time once a day for 30 days, LPS C57BL/6 mice
# [14] = test system: IL-6; experiment: LPS inflammatory aging in C57BL/6 mice, serum IL-6 (Example II-55, Table II-36); assay type: in vivo, mouse; settings: 1 mM, 200 μl/time once a day for 30 days; serum, LPS C57BL/6 mice
# [15] = test system: SARS-CoV-2 pseudovirus; set-up: species or system SARS-CoV-2 pseudovirus B.1.526.2
# [16] = test system: Hela cells; experiment: Cell membrane fluidity (Laurdan fluorescence recovery) in Hela cells; assay type: cell-based
# [17] = test system: IL-1β; experiment: Skin photoaging (UVB) in BALB/c nude mice, serum IL-1β (Example II-54, Table II-33); assay type: in vivo, mouse; settings: serum, UVB-irradiated BALB/c nude mice, 40 days
# [18] = test system: IL-6; experiment: Skin photoaging (UVB) in BALB/c nude mice, serum IL-6 (Example II-54, Table II-34); assay type: in vivo, mouse; settings: serum, UVB-irradiated BALB/c nude mice, 40 days
# [19] = test system: TNF-α; experiment: Skin photoaging (UVB) in BALB/c nude mice, serum TNF-α (Example II-54, Table II-32); assay type: in vivo, mouse; settings: UVB-irradiated BALB/c nude mice, 40 days
# [20] = test system: IL-1β; experiment: LPS inflammatory aging in C57BL/6 mice, serum IL-1β (Example II-55, Table II-35); assay type: in vivo, mouse; settings: 1 mM, 200 μl/time, once a day, 30 days
# [21] = mouse, in vivo, po
# [22] = test system: VERO E6 cells; experiment: Cytotoxicity (CCK-8) on VERO E6 cells
# [23] = test system: Hela cells; experiment: Cell migration (scratch) in Hela cells; assay type: cell-based; settings: 24 h
# Procedure: Hela cells in logarithmic growth phase (cell bank of Chinese Academy of Sciences) were trypsinized into a single cell suspension and inoculated into a 6-well culture plate. […] The next day 5 nM Thr-EPA was added by scratching with a 200-microliter gun tip against the horizontal line on the vertical back of the lid of the 6-well plate. 24 h later, samples were taken and photographed. […] Hela cells in logarithmic growth phase (cell bank of Chinese Academy of Sciences) were trypsinized into a single cell suspension and inoculated into a 6-well culture plate. […] The next day […] Thr-EPA was added by scratching with a 200-microliter gun tip against the horizontal line on the vertical back of the lid of the 6-well plate. 24 h later, samples were taken and photographed.
# [24] = Staphylococcus aureus, 0.035 mM (Table 25)
structure (smiles),measurement,setting,value
CCC=CCC=CCC=CCC=CCC=CCC=CCCC(=O)OCC(N)C(=O)O (centres unmarked),Inhibition rate (%),[1]; 0.035 mM (Table 25),99%
same,Inhibition rate (%),[2],99%
same,IC50,[3],9 µM
same,Sterilization rate (%),[4],99%
same,Inhibition rate (%),[5]; 0.035 mM (Table 25),99%
same,Sterilization rate (%),[6],99%
same,Inhibition rate (%),[7]; 0.035 mM (Table 25),99%
same,inhibition rate,[7],greater than 99%
same,IC50,[7],9 µM
same,Inhibition rate (%),[8]; 0.035 mM (Table 25),99%
same,Inhibition rate (%),[9]; 0.035 mM (Table 25),99%
same,proliferation of human hair follicle stem cells,[10],effectively promote the proliferation
same,Sterilization rate (%),[11],99%
same,Sterilization rate (%),[12],99%
CCC=CCC=CCC=CCC=CCC=CCC=CCCC(=O)OC(C)C(N)C(=O)O (centres unmarked),Inhibition rate (%),[1]; 0.035 mM (Table 25),99%
same,TNF-α,[13],53 pg/mL
same,IL-6,[14],50 pg/mL
same,Inhibition rate (%),[2],99%
same,membrane structure of the virus (TEM),[15],broken
same,Fluorescence recovery rate %,"[16]; 2 nM, 20 s",65.48%
same,Fluorescence recovery rate %,"[16]; 2 nM, 40 s",66.31%
same,Fluorescence recovery rate %,"[16]; 2 nM, 60 s",66.25%
same,Fluorescence recovery rate %,"[16]; 2 nM, 80 s",66.78%
same,Fluorescence recovery rate %,"[16]; 5 nM, 20 s",65.47%
same,Fluorescence recovery rate %,"[16]; 5 nM, 40 s",65.23%
same,Fluorescence recovery rate %,"[16]; 5 nM, 60 s",65.38%
same,Fluorescence recovery rate %,"[16]; 5 nM, 80 s",66.45%
same,Fluorescence recovery rate %,"[16]; 10 nM, 20 s",65.89%
same,Fluorescence recovery rate %,"[16]; 10 nM, 40 s",66.04%
same,Fluorescence recovery rate %,"[16]; 10 nM, 60 s",66.59%
same,Fluorescence recovery rate %,"[16]; 10 nM, 80 s",66.71%
same,Fluorescence recovery rate %,"[16]; 50 nM, 20 s",67.42%
same,Fluorescence recovery rate %,"[16]; 50 nM, 40 s",67.43%
same,Fluorescence recovery rate %,"[16]; 50 nM, 60 s",67.57%
same,Fluorescence recovery rate %,"[16]; 50 nM, 80 s",68.06%
same,Fluorescence recovery rate %,"[16]; 50 μM, 20 s",66.54%
same,Fluorescence recovery rate %,"[16]; 50 μM, 40 s",73.45%
same,Fluorescence recovery rate %,"[16]; 50 μM, 60 s",77.91%
same,Fluorescence recovery rate %,"[16]; 50 μM, 80 s",84.66%
same,Fluorescence recovery rate %,"[16]; 100 μM, 20 s",66.60%
same,Fluorescence recovery rate %,"[16]; 100 μM, 40 s",74.67%
same,Fluorescence recovery rate %,"[16]; 100 μM, 60 s",78.31%
same,Fluorescence recovery rate %,"[16]; 100 μM, 80 s",86.44%
same,IL-1β,[17]; 30 μM smeared,54 pg/mL
same,IL-1β,[17]; 50 μM smeared,56 pg/mL
same,IL-1β,[17]; 100 μM smeared,50 pg/mL
same,IL-6,[18]; 30 μM smeared,36 pg/mL
same,IL-6,[18]; 50 μM smeared,35 pg/mL
same,IL-6,[18]; 100 μM smeared,34 pg/mL
same,Sterilization rate (%),[4],99%
same,Inhibition rate (%),[5]; 0.035 mM (Table 25),99%
same,Sterilization rate (%),[6],99%
same,Inhibition rate (%),[7]; 0.035 mM (Table 25),99%
same,inhibition rate,[7],greater than 99%
same,IC50,[7],9 µM
same,TNF-α,[19]; 30 μM smeared,53 pg/mL
same,TNF-α,[19]; 50 μM smeared,47 pg/mL
same,TNF-α,[19]; 100 μM smeared,49 pg/mL
same,Inhibition rate (%),[8]; 0.035 mM (Table 25),99%
same,Inhibition rate (%),[9]; 0.035 mM (Table 25),99%
same,IL-1β,[20],55 pg/mL
same,Sterilization rate (%),[11],99%
same,Sterilization rate (%),[12],99%
CCCCCCCCN(C)C[C@H](O)[C@@H](O)[C@H](O)[C@H](O)CO [N-octyl-N-methylglucamine],inhibition at 35 µM,[1],99%
same,Sterilization rate (%),[4],99%
same,inhibition at 35 µM,[5],99%
same,Sterilization rate (%),[6],99%
same,inhibition at 35 µM,[7]; [24],99%
same,inhibition at 9 µM,[7]; Staphylococcus aureus,> 99%
same,IC50,[7]; Staphylococcus aureus,3 µM
same,inhibition at 35 µM,[8],99%
same,inhibition at 35 µM,[9],99%
same,"liver, heart, kidney, bone/hepatobiliary function in blood versus control group",[21],no difference
same,"physiological state, body weight, fur color, food consumption, mental state versus control group",[21],not significantly different
same,effect of the complex on cells,[22]; 9 mM to 0.035 mM,less than 10%
same,Sterilization rate (%),[11],99%
same,Sterilization rate (%),[12],99%
CCCCCC=CCC=CCCCCCCCC(=O)OCC(N)C(=O)O (centres unmarked) [Ser-linoleic acid],TNF-α,[13],49 pg/mL
same,IL-6,[14],39 pg/mL
same,IL-1β,[17]; 30 μM smeared,53 pg/mL
same,IL-1β,[17]; 50 μM smeared,54 pg/mL
same,IL-1β,[17]; 100 μM smeared,55 pg/mL
same,IL-6,[18]; 30 μM smeared,28 pg/mL
same,IL-6,[18]; 50 μM smeared,27 pg/mL
same,IL-6,[18]; 100 μM smeared,29 pg/mL
same,TNF-α,[19]; 30 μM smeared,48 pg/mL
same,TNF-α,[19]; 50 μM smeared,51 pg/mL
same,TNF-α,[19]; 100 μM smeared,45 pg/mL
same,IL-1β,[20],43 pg/mL
CCCCCCCCCN(C)C[C@H](O)[C@@H](O)[C@H](O)[C@H](O)CO [N-nonyl-N-methylglucamine],inhibition at 35 µM,[1],99%
same,Sterilization rate (%),[4],99%
same,inhibition at 35 µM,[5],99%
same,Sterilization rate (%),[6],99%
same,inhibition at 35 µM,[7]; [24],99%
same,inhibition at 9 µM,[7]; Staphylococcus aureus,> 99%
same,IC50,[7]; Staphylococcus aureus,3 µM
same,inhibition at 35 µM,[8],99%
same,inhibition at 35 µM,[9],99%
same,"liver, heart, kidney, bone/hepatobiliary function in blood versus control group",[21],no difference
same,"physiological state, body weight, fur color, food consumption, mental state versus control group",[21],not significantly different
same,effect of the complex on cells,[22]; 9 mM to 0.035 mM,less than 10%
same,Sterilization rate (%),[11],99%
same,Sterilization rate (%),[12],99%
CCC=CCC=CCC=CCC=CCC=CCCCC(=O)OC(C)C(N)C(=O)O (centres unmarked) [Thr-EPA],cell migration,[23]; 5 nM,inhibited cell migration
same,cell migration,[23]; 50 µM,promoted cell migration
CCCCCCCC/C=C\CCCCCCCC(=O)NCCCCC(N)C(=O)O (centres unmarked),inhibition rate,[7],greater than 99%
same,IC50,[7],9 µM
same,"liver, heart, kidney, bone/hepatobiliary function in blood versus control group",[21],no difference
same,"physiological state, body weight, fur color, food consumption, mental state versus control group",[21],not significantly different
same,effect of the complex on cells,[22]; […] to 0.035 mM,less than 1%
CCCCCCCC(=O)OC(C)C(N)C(=O)O (centres unmarked),Inhibition rate (%),[1]; 0.035 mM (Table 25),99%
same,Inhibition rate (%),[2],99%
same,membrane structure of the virus (TEM),[15],broken
same,Sterilization rate (%),[4],99%
same,Inhibition rate (%),[5]; 0.035 mM (Table 25),99%
same,Sterilization rate (%),[6],99%
same,Inhibition rate (%),[7]; 0.035 mM (Table 25),99%
same,inhibition rate,[7],greater than 99%
same,IC50,[7],9 µM
same,Inhibition rate (%),[8]; 0.035 mM (Table 25),99%
same,Inhibition rate (%),[9]; 0.035 mM (Table 25),99%
same,Sterilization rate (%),[11],99%
same,Sterilization rate (%),[12],99%
CC/C=C\C/C=C\C/C=C\CCCCCCCC(=O)NCCCCC(N)C(=O)O (centres unmarked) [Lys-ALA],proliferation of human hair follicle stem cells,[10],effectively promote the proliferation
CCCCCCC(O)CC=CCCCCCCCC(=O)NCCCCC(N)C(=O)O (centres unmarked) [Lys-ricinoleic acid],TNF-α,[13],43 pg/mL
same,IL-6,[14],60 pg/mL
same,IL-1β,[17]; 30 μM smeared,70 pg/mL
same,IL-1β,[17]; 50 μM smeared,65 pg/mL
same,IL-1β,[17]; 100 μM smeared,63 pg/mL
same,IL-6,[18]; 30 μM smeared,34 pg/mL
same,IL-6,[18]; 50 μM smeared,38 pg/mL
same,IL-6,[18]; 100 μM smeared,33 pg/mL
same,TNF-α,[19]; 30 μM smeared,60 pg/mL
same,TNF-α,[19]; 50 μM smeared,55 pg/mL
same,TNF-α,[19]; 100 μM smeared,57 pg/mL
same,IL-1β,[20],51 pg/mL
CCC=CCC=CCC=CCC=CCC=CCC=CCCC(=O)NCCCCC(N)C(=O)O (centres unmarked),Inhibition rate (%),[1],99%
same,Inhibition rate (%),[2],99%
same,membrane structure of the virus (TEM),[15],broken
same,Sterilization rate (%),[4],99%
same,Inhibition rate (%),[5],99%
same,Sterilization rate (%),[6],99%
same,Inhibition rate (%),[7],99%
same,inhibition rate,[7],greater than 99%
same,IC50,[7],9 µM
same,Inhibition rate (%),[8],99%
same,Inhibition rate (%),[9],99%
same,"liver, heart, kidney, bone/hepatobiliary function in blood versus control group",[21],no difference
same,"physiological state, body weight, fur color, food consumption, mental state versus control group",[21],not significantly different
same,effect of the complex on cells,[22]; […] to 0.035 mM,less than 10%
same,Sterilization rate (%),[11],99%
same,Sterilization rate (%),[12],99%
